Data set [1] deals with HeLa. As to the kind of experiment: Inhibition of cell migration in human HeLa cells assessed as migration rate at 10 uM incubated for 24 hrs by transwell assay; values are per cent of control.
The nature of data set [2]: (§1) Cytotoxicity against human HEK293T cells by MTT assay. Type of data set: toxicity, cell-based, HEK-293T. Conditions: human, HEK293T cells.
For data set [3], the system named is HeLa. As to the kind of experiment: Inhibition of cell adhesion in human HeLa cells at 10 uM. Type of data set: functional.
The subject of data set [4] is HeLa. Description: Antiproliferative activity against human HeLa cells by MTT assay. Type of data set: functional, cell-based.
The nature of data set [5]: Inhibition of tumor angiogenesis in human HeLa cells xenografted in chick embryo chorioallantoic membrane at 10 uM incubated for 24 hrs; values are per cent of control.
Another data set relates to MDA-MB-231. As to the kind of experiment: Antiproliferative activity against human MDA-MB-231 cells by MTT assay. Type of data set: functional, cell-based. Background: Tetrazolium dyes change colour on reduction, which living cells bring about.
The subject of data set [6] is HeLa. As to the kind of experiment: Inhibition of colony formation in human HeLa cells at 10 uM incubated for 24 hrs. Type of data set: functional.
A further data set concerns HEK-293T. Described as §1. Type of data set: toxicity, cell-based. Conditions: hek-293t; for Activity: human.
The subject of data set [7] is HeLa. As to the kind of experiment: Inhibition of cell migration in human HeLa cells assessed as migration rate at 5 uM incubated for 24 hrs by transwell assay; values are per cent of control.
The nature of data set [8]: Inhibition of tumor angiogenesis in human HeLa cells xenografted in chick embryo chorioallantoic membrane at 2.5 uM incubated for 24 hrs; values are per cent of control. In general terms: Xenograft models place foreign cells or tissue in a host animal.
For data set [9], the system named is HeLa. Description: Antitumor activity against human HeLa cells xenografted in chicken embryo chorioallantoic membrane assessed as reduction in tumor weight at 10 uM (reference value: 39 +/- 1.41 mg). Type of data set: functional.
A short description of data set [10]: Inhibition of tumor angiogenesis in human HeLa cells xenografted in chick embryo chorioallantoic membrane at 5 uM incubated for 24 hrs; values are per cent of control.
Data set [11] deals with HeLa. As to the kind of experiment: Antitumor activity against human HeLa cells xenografted in chicken embryo chorioallantoic membrane assessed as reduction in tumor weight at 5 uM (reference value: 39 +/- 1.41 mg). In kind it is functional.
The test system of data set [12] is HeLa. Description: Inhibition of colony formation in human HeLa cells incubated for 24 hrs. Conditions: dose 2.5-10 µM. In kind it is functional, cell-based.
The test system of data set [13] is HeLa. Description: Inhibition of cell adhesion in human HeLa cells. Type of data set: functional, cell-based.
In data set [14] the test system is HeLa. Description: Inhibition of cell migration in human HeLa cells assessed as migration rate at 2.5 uM incubated for 24 hrs by transwell assay; values are per cent of control.
Data set [15] concerns HeLa. As to the kind of experiment: Antitumor activity against human HeLa cells xenografted in chicken embryo chorioallantoic membrane assessed as reduction in tumor weight at 2.5 uM (reference value: 39 +/- 1.41 mg). Type of data set: functional.

We go through 15 compounds from ChEMBL document CHEMBL6127011, “Design, synthesis, and evaluation of benzodioxolane compounds for antitumor activity” (Bioorg Med Chem Lett, 2024).

Active and inactive are the calls of the source. The rule behind the calls is not given here.

As for `O=c1[nH]cc(F)c(=O)[nH]1` [FLUOROURACIL], the migration rate (% of control) at 10 µM in the data set on HeLa [1] amounted to 47.3%. Besides, the half-maximal inhibitory concentration (IC50) in data set [2] amounted to 3.21 µM; with HeLa [4], 44.6 µM; with MDA-MB-231 it was 18.1 µM. The figures for the inhibition at 10 µM with HeLa [3] and with HeLa [6] were 55.8% and 52.1%, respectively. Besides, the angiogenesis (% of control) at 10 µM in data set [5] turned out to be 78.8%.

Consider `COc1cc2c(cc1OC)C(=O)C(CC1CCN(C(=O)/C=C/c3ccc4c(c3)OCO4)CC1)C2` (configuration not stated), for which the 50% inhibitory concentration (IC50) stood at 8.03 µM in [2], 18.5 µM in the data set on HeLa [4] and 105 µM with MDA-MB-231.

Take `O=C1CCC(N2Cc3c(NC(=O)c4ccc5c(c4)OCO5)cccc3C2=O)C(=O)N1` (configuration not stated): the concentration for half-maximal inhibition (IC50) came out at 625 µM in data set [2], 11.5 µM with HeLa [4] and 284 µM with MDA-MB-231.

`Cc1cn(-c2cc(NC(=O)Cc3ccc4c(c3)OCO4)cc(C(F)(F)F)c2)cn1`: the IC50 in data set [2] amounted to 18.9 µM; in the data set on HeLa [4] it was 7.81 µM; with MDA-MB-231 it was 46.9 µM.

For `COc1cc2c(cc1OC)C(=O)C(CC1CCN(C(=O)/C=C/C=C/c3ccc4c(c3)OCO4)CC1)C2` (configuration not stated), the IC50 in data set [2] amounted to 61.9 µM; in the data set on HeLa [4] it was 32.1 µM; in the data set on MDA-MB-231, 123 µM.

As to `O=C(/C=C/C=C/c1ccc2c(c1)OCO2)N1CCCCC1` [PIPERINE], the concentration for half-maximal inhibition (IC50) stood at 42.8 µM in data set [2], 44.4 µM in the data set with HeLa [4] and 239 µM in the data set with MDA-MB-231.

For `O=C(/C=C/c1ccc2c(c1)OCO2)Nc1cccc2c1CN(C1CCC(=O)NC1=O)C2=O` (configuration not stated), the values for the half-maximal inhibitory concentration (IC50) with HEK-293T and with HeLa [4] were 1440 µM and 37.3 µM, respectively. In the data set on MDA-MB-231, the outcome was inactive.

As for `COc1cc2c(cc1OC)C(=O)C(CC1CCN(C(=O)c3ccc4c(c3)OCO4)CC1)C2` (configuration not stated), the IC50 in [2] came out at 405 µM; with HeLa [4], 25 µM; with MDA-MB-231 it was 80.6 µM.

In the case of `O=C(/C=C/C=C/c1ccc2c(c1)OCO2)Nc1cccc2c1CN(C1CCC(=O)NC1=O)C2=O` (configuration not stated), the IC50 in data set [2] turned out to be 81.5 µM; with HeLa [4], 50.4 µM; in the data set with MDA-MB-231, 80.7 µM.

With `COc1cc2c(cc1OC)C(=O)C(CC1CCN(C(=O)c3ccc4c(c3)OC(F)(F)O4)CC1)C2` (configuration not stated), in the data set on HEK-293T, the Activity result is “Non-Toxic”. In addition, the half-maximal inhibitory concentration (IC50) came to 38 µM in the data set with HeLa [4] and 81.3 µM in the data set on MDA-MB-231.

On to `O=C1CCC(N2Cc3c(NC(=O)Cc4ccc5c(c4)OCO5)cccc3C2=O)C(=O)N1` (configuration not stated), for which the values for the half-maximal inhibitory concentration (IC50) with HEK-293T and with HeLa [4] were 1430 µM and 63.2 µM, respectively. Also, the outcome in the data set with MDA-MB-231 was inactive.

Turning to `COc1cc2c(cc1OC)C(=O)C(CC1CCN(C(=O)/C=C/c3cc4c(cc3Br)OCO4)CC1)C2` (configuration not stated), the Activity result with HEK-293T is “Non-Toxic”. The values for the IC50 with HeLa [4] and in the data set on MDA-MB-231 were 29.5 µM and 15.2 µM, respectively.

`Cc1cn(-c2cc(NC(=O)c3ccc4c(c3)OCO4)cc(C(F)(F)F)c2)cn1`: the half-inhibitory concentration (IC50) in data set [2] worked out at 479 µM; in the data set with HeLa [4], 50.6 µM; in the data set with MDA-MB-231, 254 µM.

As for `Cc1cn(-c2cc(NC(=O)/C=C/c3ccc4c(c3)OCO4)cc(C(F)(F)F)c2)cn1`, the figures for the IC50 (in data set [2]; in the data set with HeLa [4]; in the data set with MDA-MB-231) were 18.7 µM, 8.61 µM and 28.8 µM, respectively.

As to `Cc1cn(-c2cc(NC(=O)/C=C/C=C/c3ccc4c(c3)OCO4)cc(C(F)(F)F)c2)cn1`, the migration rate (% of control) at 10 µM in the data set on HeLa [1] was determined as 27.6%. Besides, in the data set with HeLa [7], the migration rate (% of control) at 5 µM stood at 50.4%. In data set [8], this compound returned an angiogenesis (% of control) at 2.5 µM of 93.2%. The IC50 came out at 104 µM in [2], 10.2 µM in the data set with HeLa [4] and 22.8 µM in the data set with MDA-MB-231. Moreover, the Activity in the data set with HeLa [9] is 7.5 mg; in the data set on HeLa [11] it was 13.5 mg; in the data set on HeLa [15] it was 28.5 mg. In addition, the values for the inhibition at 10 µM with HeLa [3] and in the data set on HeLa [6] were 16.7% and 25.1%, respectively. Moreover, the angiogenesis (% of control) at 5 µM in data set [10] turned out to be 78.4%. Moreover, the inhibition entry with HeLa [12] and in the data set with HeLa [13] was “Dose-Dependent Effect” throughout. For the same compound, the migration rate (% of control) at 2.5 µM in the data set on HeLa [14] is 80.3%. In [5], this compound displayed an angiogenesis (% of control) at 10 µM of 61.9%.

For orientation: IC50 means the point on the concentration scale where inhibition reaches its midpoint. A higher IC50 goes with lower potency. For orientation: inhibition means how much of the control response was suppressed.
